Measurements taken from patent US10093713B2, “GIP-GLP-1 dual agonist compounds and methods” (priority 2013, dated 2018).
Where two headings read alike, the source gives them in different places. *1 amine or outer side, *2 acyl side, *3 side chain or, on linkers, in order; H or OH if unused. Where a SMILES comes first, the peptide text is derived from it. Side-chain parts run from the residue outwards. [ ]: non-standard residue; d: D form. The star is where a group is joined. C20 diacid = O=C(O)CCCCCCCCCCCCCCCCCCC(=O)*; C18 diacid = O=C(O)CCCCCCCCCCCCCCCCC(=O)*; γGlu = O=C(O)[C@H](CCC(=O)[*:2])N[*:1]; AEEA = NCCOCCOCC(=O)O; Aib = CC(C)(N)C(=O)O

Columns and labels:
[1] = Pharmacokinetics of selected compounds in mice; assay type: in vivo, C57BL/6J mice; settings: mouse, plasma; for bioavailability: subcutaneous, AUCinf (s.c.)/AUCinf (i.v.)x100, values marked * capped to 100%
Procedure: Pharmacokinetics of Selected Compounds in Mice
C57BL/6J mice (males with a body weight of approximately 25 g) were given either a single subcutaneous (s.c.) bolus or a single intravenous (i.v.) bolus of each peptide to be tested.
Following s.c. administration of the selected compounds (50, 100 or 200 nmol/kg), blood samples were drawn at 8 (eight) timepoints up to 72 hours post-dose. Following i.v. administration of the selected compounds (50, 100 or 200 nmol/kg), blood samples were drawn at 8 (eight) timepoints up to 48 hours post-dose. Blood samples were drawn by sublingual bleeding. The dosing vehicle was a phosphate buffer containing mannitol (pH 7.5).
At each sampling time point, samples from two mice were drawn, i.e. 16 mice were included for each compound and each administration route. The mice were euthanized immediately after blood sampling by cervical dislocation. Plasma samples were analyzed after solid phase extraction (SPE) or protein precipitation followed by liquid chromatography mass spectrometry (LC-MS/MS). Mean plasma concentrations were used for calculation of the pharmacokinetic parameters using the non-compartmental approach in Phoenix WinNonlin 6.3. Plasma terminal elimination half-life (T½) was determined as […] where λz is the magnitude of the slope of the log linear regression of the log concentration versus time profile during the terminal phase. Bioavailability was determined as AUCinf (s.c.)/AUCinf (i.v.)×100, where AUCinf is the area under the plasma concentration−time curve extrapolated to infinity (AUCinf=AUClast+Clast/λz, where Clast is the last observed plasma concentration). Tmax is the post-dose time where the maximal plasma concentration was observed.

human GLP-1 R = molecular target: T1, human GLP-1 R (Homo sapiens, UniProt P43220); test: Human GLP-1 receptor (GLP-1 R) activity assay, cAMP induction (AlphaScreen) in HEK293 cells; assay type: cell-based
T1 construct: expressed in transfected cells
T1 sequence (P43220 24-463): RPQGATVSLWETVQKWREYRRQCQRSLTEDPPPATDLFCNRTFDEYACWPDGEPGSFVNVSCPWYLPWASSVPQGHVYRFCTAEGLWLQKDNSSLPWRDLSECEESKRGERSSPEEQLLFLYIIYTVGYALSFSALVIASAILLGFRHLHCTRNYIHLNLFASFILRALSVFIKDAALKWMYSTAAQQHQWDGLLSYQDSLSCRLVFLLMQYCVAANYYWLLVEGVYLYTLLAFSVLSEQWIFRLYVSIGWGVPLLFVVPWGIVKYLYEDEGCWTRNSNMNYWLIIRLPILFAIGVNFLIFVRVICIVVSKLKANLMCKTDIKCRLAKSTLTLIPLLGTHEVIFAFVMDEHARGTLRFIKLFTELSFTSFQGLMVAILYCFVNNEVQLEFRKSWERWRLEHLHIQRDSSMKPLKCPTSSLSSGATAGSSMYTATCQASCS
Procedure, shortened: (§1)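 Stable HEK293 clones expressing human GIP R or GLP-1 R, seeded 1 day before; cells washed in Tyrode's buffer (10 mM HEPES, pH 7.4), stimulated, then lysed. cAMP measured by AlphaScreen bead competition (1 h, room temperature, dark). EC50 = concentration giving half-maximal cAMP elevation, from curves of absolute cAMP (nM) vs log concentration.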

human GIP R = molecular target: T2, human GIP R (Homo sapiens, UniProt P48546); test: Human GIP receptor (GIP R) activity assay, cAMP induction (AlphaScreen) in HEK293 cells; assay type: cell-based; settings: read-out: hGIP-R cAMP EC50 average value
T2 construct: expressed in transfected cells
T2 sequence (P48546 22-466): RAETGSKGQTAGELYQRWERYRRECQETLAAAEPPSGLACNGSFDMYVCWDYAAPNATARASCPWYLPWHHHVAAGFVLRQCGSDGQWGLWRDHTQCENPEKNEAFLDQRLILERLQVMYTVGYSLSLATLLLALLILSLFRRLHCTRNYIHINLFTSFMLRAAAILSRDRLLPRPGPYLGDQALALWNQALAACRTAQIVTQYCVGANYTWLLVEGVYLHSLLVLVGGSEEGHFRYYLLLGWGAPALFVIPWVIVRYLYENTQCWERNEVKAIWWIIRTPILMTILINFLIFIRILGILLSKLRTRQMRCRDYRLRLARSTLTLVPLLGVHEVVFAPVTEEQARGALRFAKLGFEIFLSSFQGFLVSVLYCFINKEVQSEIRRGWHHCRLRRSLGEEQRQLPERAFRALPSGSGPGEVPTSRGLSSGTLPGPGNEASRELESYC
Procedure, shortened: as §1

[2] = Table 2, HEK293 cells expressing human GLP-1 R, read-out: hGLP1-R cAMP EC50 average value
[3] = Table 2, HEK293 cells expressing human GIP R
[4] = Table 2a, secondary assay study
[5] = Table 3, most comprehensive data
[6] = male, C57BL/6J, iv, single i.v. bolus, read-out: T½ terminal elimination half-life, i.v. (converted)
[7] = male, C57BL/6J, sc, single s.c. bolus
[8] = male, C57BL/6J, sc, single s.c. bolus, read-out: T½ terminal elimination half-life, s.c. (converted)
[9] = Table 3, most comprehensive data, read-out: hGLP-1-R cAMP EC50 average value

Question: What does the source list for `CC[C@H](C)[C@H](NC(=O)[C@H](CO)NC(=O)[C@H](Cc1ccc(O)cc1)NC(=O)[C@H](CC(=O)O)NC(=O)[C@H](CO)NC(=O)[C@@H](NC(=O)[C@H](Cc1ccccc1)NC(=O)[C@@H](NC(=O)CNC(=O)[C@H](CCC(=O)O)NC(=O)C(C)(C)NC(=O)[C@@H](N)Cc1ccc(O)cc1)[C@@H](C)O)[C@@H](C)O)C(=O)N[C@@H](Cc1ccc(O)cc1)C(=O)N[C@@H](CC(C)C)C(=O)N[C@@H](CC(=O)O)C(=O)N[C@@H](CCCCN)C(=O)N[C@@H](CCCCNC(=O)CNC(=O)CNC(=O)[C@H](CO)NC(=O)CNC(=O)[C@H](CO)NC(=O)CNC(=O)CC[C@H](NC(=O)CCCCCCCCCCCCCCCCC(=O)O)C(=O)O)C(=O)N[C@@H](C)C(=O)N[C@@H](CCC(N)=O)C(=O)N[C@@H](CCCNC(=N)N)C(=O)N[C@@H](C)C(=O)N[C@@H](Cc1ccccc1)C(=O)N[C@H](C(=O)N[C@@H](CCC(=O)O)C(=O)N[C@@H](Cc1c[nH]c2ccccc12)C(=O)N[C@@H](CC(C)C)C(=O)N[C@@H](CC(C)C)C(=O)N[C@@H](C)C(=O)N[C@@H](CCC(N)=O)C(=O)NCC(=O)N1CCC[C@H]1C(=O)N[C@@H](CO)C(=O)N[C@@H](CO)C(=O)NCC(=O)N[C@@H](C)C(=O)N1CCC[C@H]1C(=O)N1CCC[C@H]1C(=O)N1CCC[C@H]1C(=O)N[C@@H](CO)C(N)=O)C(C)C` [Compound 4]?
Answer: half-life ([1]; iv, single i.v. bolus, read-out: T½ terminal elimination half-life, i.v. (converted)): 8.7 h; bioavailability [1]: 100%; Tmax ([1]; sc, single s.c. bolus): 6 h; half-life ([1]; sc, single s.c. bolus, read-out: T½ terminal elimination half-life, s.c. (converted)): 10.8 h; EC50 (human GLP-1 R; [2]): 0.01 nM; EC50 (human GIP R; [3]): 0.0087 nM; EC50 (human GIP R; [4]): 0.009 nM; EC50 (human GIP R; [5]): 0.009 nM

Question: With `CC[C@H](C)[C@H](NC(=O)[C@H](CO)NC(=O)[C@H](Cc1ccc(O)cc1)NC(=O)[C@H](CC(=O)O)NC(=O)[C@H](CO)NC(=O)[C@@H](NC(=O)[C@H](Cc1ccccc1)NC(=O)[C@@H](NC(=O)CNC(=O)[C@H](CCC(=O)O)NC(=O)[C@@H](C)NC(=O)[C@@H](N)Cc1ccc(O)cc1)[C@@H](C)O)[C@@H](C)O)C(=O)N[C@@H](C)C(=O)N[C@@H](CC(C)C)C(=O)N[C@@H](CCC(=O)O)C(=O)N[C@@H](CCCCN)C(=O)N[C@@H](CCCCNC(=O)COCCOCCNC(=O)COCCOCCNC(=O)CC[C@H](NC(=O)CCCCCCCCCCCCCCCCCCC(=O)O)C(=O)O)C(=O)N[C@@H](C)C(=O)N[C@@H](CCC(N)=O)C(=O)N[C@@H](CCCNC(=N)N)C(=O)N[C@@H](C)C(=O)N[C@@H](Cc1ccccc1)C(=O)N[C@H](C(=O)N[C@@H](CCC(=O)O)C(=O)N[C@@H](Cc1c[nH]c2ccccc12)C(=O)N[C@@H](CC(C)C)C(=O)N[C@@H](CC(C)C)C(=O)N[C@@H](C)C(=O)N[C@@H](CCC(N)=O)C(=O)NCC(=O)N1CCC[C@H]1C(=O)N[C@@H](CO)C(=O)N[C@@H](CO)C(=O)NCC(=O)N[C@@H](C)C(=O)N1CCC[C@H]1C(=O)N1CCC[C@H]1C(=O)N1CCC[C@H]1C(=O)N[C@@H](CO)C(N)=O)C(C)C` [Compound 32] (H-Y[dA]EGTFTSDYSIALEKK([AEEA-AEEA-γGlu-C20 diacid])AQRAFVEWLLAQGPSSGAPPPS-NH2) as the molecule, how does the half-life [1, 6] read?
Answer: The half-life was 17.4 h.

Question: And the bioavailability ([1]; male, C57BL/6J)?
Answer: The bioavailability was 100%.

Question: And the Tmax [1, 7]?
Answer: The Tmax was 8 h.

Question: What about the half-life [1, 8] of the same molecule?
Answer: The half-life was 11.8 h.

Question: And the EC50 (human GLP-1 R; [2])?
Answer: Its EC50 is 0.04 nM.

Question: What about the EC50 (human GLP-1 R; [9]) of the same molecule?
Answer: The EC50 was 0.056 nM.

Question: And the EC50 (human GIP R; [3])?
Answer: The EC50 was 0.016 nM.

Question: What about the EC50 (human GIP R; [5]) of the same molecule?
Answer: Its EC50 is 0.018 nM.

Question: For `CC[C@H](C)[C@H](NC(=O)[C@H](CO)NC(=O)[C@H](Cc1ccc(O)cc1)NC(=O)[C@H](CC(=O)O)NC(=O)[C@H](CO)NC(=O)[C@@H](NC(=O)[C@H](Cc1ccccc1)NC(=O)[C@@H](NC(=O)CNC(=O)[C@H](CCC(=O)O)NC(=O)C(C)(C)NC(=O)[C@@H](N)Cc1ccc(O)cc1)[C@@H](C)O)[C@@H](C)O)C(=O)N[C@@H](Cc1ccc(O)cc1)C(=O)N[C@@H](CC(C)C)C(=O)N[C@@H](CC(=O)O)C(=O)N[C@@H](CCCCN)C(=O)N[C@@H](CCCCNC(=O)COCCOCCNC(=O)COCCOCCNC(=O)CC[C@H](NC(=O)CCCCCCCCCCCCCCCCC(=O)O)C(=O)O)C(=O)N[C@@H](C)C(=O)N[C@@H](CCC(N)=O)C(=O)N[C@@H](CCCNC(=N)N)C(=O)N[C@@H](C)C(=O)N[C@@H](Cc1ccccc1)C(=O)N[C@H](C(=O)N[C@@H](CCC(=O)O)C(=O)N[C@@H](Cc1c[nH]c2ccccc12)C(=O)N[C@@H](CC(C)C)C(=O)N[C@@H](CC(C)C)C(=O)N[C@@H](C)C(=O)N[C@@H](CCC(N)=O)C(=O)NCC(=O)N1CCC[C@H]1C(=O)N[C@@H](CO)C(=O)N[C@@H](CO)C(=O)NCC(=O)N[C@@H](C)C(=O)N1CCC[C@H]1C(=O)N1CCC[C@H]1C(=O)N1CCC[C@H]1C(=O)N[C@@H](CO)C(N)=O)C(C)C` [Compound 1] (H-Y[Aib]EGTFTSDYSIYLDKK([AEEA-AEEA-γGlu-C18 diacid])AQRAFVEWLLAQGPSSGAPPPS-NH2), which half-life [1, 6] is on record?
Answer: The half-life was 10.8 h.

Question: And the bioavailability ([1]; male, C57BL/6J)?
Answer: Its bioavailability is 90%.

Question: And the Tmax [1, 7]?
Answer: Its Tmax is 6 h.

Question: What about the half-life [1, 8] of the same molecule?
Answer: The half-life was 9.1 h.

Question: What about the EC50 (human GLP-1 R; [2]) of the same molecule?
Answer: Its EC50 is 0.012 nM.

Question: What about the EC50 (human GLP-1 R; Table 2a, secondary assay study, read-out: hGLP1-R cAMP EC50 average value) of the same molecule?
Answer: Its EC50 is 0.015 nM.

Question: And the EC50 (human GLP-1 R; [9])?
Answer: The EC50 was 0.015 nM.

Question: What about the EC50 (human GIP R; [3]) of the same molecule?
Answer: Its EC50 is 0.0055 nM.

Question: And the EC50 (human GIP R; [4])?
Answer: Its EC50 is 0.006 nM.

Question: What about the EC50 (human GIP R; [5]) of the same molecule?
Answer: The EC50 was 0.006 nM.

Question: With `CC[C@H](C)[C@H](NC(=O)[C@H](CO)NC(=O)[C@H](Cc1ccc(O)cc1)NC(=O)[C@H](CC(=O)O)NC(=O)[C@H](CO)NC(=O)[C@@H](NC(=O)[C@H](Cc1ccccc1)NC(=O)[C@@H](NC(=O)CNC(=O)[C@H](CCC(=O)O)NC(=O)C(C)(C)NC(=O)[C@@H](N)Cc1ccc(O)cc1)[C@@H](C)O)[C@@H](C)O)C(=O)N[C@@H](Cc1ccc(O)cc1)C(=O)N[C@@H](CC(C)C)C(=O)N[C@@H](CCC(=O)O)C(=O)N[C@@H](CCCCN)C(=O)N[C@@H](CCCCNC(=O)COCCOCCNC(=O)COCCOCCNC(=O)CC[C@H](NC(=O)CCCCCCCCCCCCCCCCCCC(=O)O)C(=O)O)C(=O)N[C@@H](C)C(=O)N[C@@H](CCC(N)=O)C(=O)N[C@@H](CCCNC(=N)N)C(=O)N[C@@H](C)C(=O)N[C@@H](Cc1ccccc1)C(=O)N[C@H](C(=O)N[C@@H](CCC(=O)O)C(=O)N[C@@H](Cc1c[nH]c2ccccc12)C(=O)N[C@@H](CC(C)C)C(=O)N[C@@H](CC(C)C)C(=O)N[C@@H](CCCNC(=N)N)C(=O)N[C@@H](C)C(N)=O)C(C)C` [Compound 29] (H-Y[Aib]EGTFTSDYSIYLEKK([AEEA-AEEA-γGlu-C20 diacid])AQRAFVEWLLRA-NH2) as the molecule, how does the EC50 (human GLP-1 R; [2]) read?
Answer: The EC50 was 0.033 nM.

Question: And the EC50 (human GIP R; [3])?
Answer: Its EC50 is 0.025 nM.
